From PubChem BioAssay (NCI)
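Interpolation was linear, between the two tested concentrations surrounding the appropriate level; five concentrations were tested over 48 hours in 96-well plates. GI50: concentration for 50% inhibition of growth. Definition used: TGI = concentration required for complete inhibition of growth.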

What was measured:
Assay in all cases: growth of human tumour cells (NCI), 48 h
SR leukemia = test system: SR leukemia
NCI-H460 lung = test system: NCI-H460 lung
IGROV1 ovarian = test system: IGROV1 ovarian
SNB-75 CNS = test system: SNB-75 CNS
MDA-MB-468 breast = test system: MDA-MB-468 breast
T-47D breast = test system: T-47D breast
HS 578T breast = test system: HS 578T breast
HT29 colon = test system: HT29 colon
786-0 renal = test system: 786-0 renal
U251 CNS = test system: U251 CNS
MOLT-4 leukemia = test system: MOLT-4 leukemia
RPMI-8226 leukemia = test system: RPMI-8226 leukemia
OVCAR-3 ovarian = test system: OVCAR-3 ovarian
SK-OV-3 ovarian = test system: SK-OV-3 ovarian
SN12C renal = test system: SN12C renal
A498 renal = test system: A498 renal
EKVX NSCLC = test system: EKVX NSCLC
NCI-H522 lung = test system: NCI-H522 lung
HCC-2998 colon = test system: HCC-2998 colon
SW-620 colon = test system: SW-620 colon
PC-3 prostate = test system: PC-3 prostate
MCF7 breast = test system: MCF7 breast
ACHN renal = test system: ACHN renal
HL-60(TB) leukemia = test system: HL-60(TB) leukemia
SK-MEL-2 melanoma = test system: SK-MEL-2 melanoma
COLO 205 colon = test system: COLO 205 colon
TK-10 renal = test system: TK-10 renal
SF-268 CNS = test system: SF-268 CNS
HOP-62 NSCLC = test system: HOP-62 NSCLC

COc1sc(/C=N/NC(=O)c2[nH]c3ccc(Br)cc3c2-c2ccccc2)cc1Br
GI50 (SR leukemia): 1.1 µM
TGI (SR leukemia): > 100 µM
GI50 (NCI-H460 lung): 3.03 µM
TGI (NCI-H460 lung): 12.4 µM
GI50 (IGROV1 ovarian): 3.5 µM
TGI (IGROV1 ovarian): > 100 µM
GI50 (SNB-75 CNS): 0.359 µM
TGI (SNB-75 CNS): 25.3 µM
GI50 (MDA-MB-468 breast): 2.18 µM
TGI (MDA-MB-468 breast): 6.88 µM
GI50 (T-47D breast): 45.2 µM
TGI (T-47D breast): > 100 µM
GI50 (HS 578T breast): 1.92 µM
TGI (HS 578T breast): > 100 µM
GI50 (HT29 colon): 1.16 µM
TGI (HT29 colon): > 100 µM
GI50 (786-0 renal): 2.84 µM
TGI (786-0 renal): > 100 µM
GI50 (U251 CNS): 3.65 µM
TGI (U251 CNS): > 100 µM
GI50 (MOLT-4 leukemia): 3.16 µM
TGI (MOLT-4 leukemia): 35.6 µM
GI50 (RPMI-8226 leukemia): 1.92 µM
TGI (RPMI-8226 leukemia): > 100 µM
GI50 (OVCAR-3 ovarian): 1.2 µM
TGI (OVCAR-3 ovarian): 12 µM
GI50 (SK-OV-3 ovarian): 0.365 µM
TGI (SK-OV-3 ovarian): > 100 µM
GI50 (SN12C renal): 2.91 µM
TGI (SN12C renal): > 100 µM
GI50 (A498 renal): 5.44 µM
TGI (A498 renal): 39.4 µM
GI50 (EKVX NSCLC): 5.7 µM
TGI (EKVX NSCLC): > 100 µM
GI50 (NCI-H522 lung): 0.259 µM
TGI (NCI-H522 lung): 0.686 µM
GI50 (HCC-2998 colon): 3.74 µM
TGI (HCC-2998 colon): > 100 µM
GI50 (SW-620 colon): 3.28 µM
TGI (SW-620 colon): > 100 µM
GI50 (PC-3 prostate): 3.14 µM
TGI (PC-3 prostate): > 100 µM
GI50 (MCF7 breast): 1.54 µM
TGI (MCF7 breast): > 100 µM
GI50 (ACHN renal): 3.27 µM
TGI (ACHN renal): > 100 µM
GI50 (HL-60(TB) leukemia): 1.62 µM
TGI (HL-60(TB) leukemia): 5.53 µM
GI50 (SK-MEL-2 melanoma): 5.12 µM
TGI (SK-MEL-2 melanoma): > 100 µM
GI50 (COLO 205 colon): 0.223 µM
TGI (COLO 205 colon): 0.516 µM
GI50 (TK-10 renal): 88.9 µM
TGI (TK-10 renal): > 100 µM
GI50 (SF-268 CNS): 2.82 µM
TGI (SF-268 CNS): > 100 µM
GI50 (HOP-62 NSCLC): 0.353 µM
TGI (HOP-62 NSCLC): 37.5 µM
